Experiments:
c-myc in MV4-11 cells = assay: Inhibition of c-myc expression in cancer cell lines (mRNA, real-time PCR); type: cell-based, Human; parameters: key: Active: Compounds with an IC50 value less than 30 μM were deemed to be active.; Not Active: Compounds with an IC50 value less than 30 μM were deemed to be active; conditions: 3 h
Experimental: MV4-11 cells (2.5×10^4 cells) were plated in 96 well U-bottom plates with test compound or DMSO (0.1%), and incubated for 3 h at 37° C. Cells were then harvested by centrifugation, lysed, and mRNA was isolated using the mRNA catcher plus kit (Invitrogen). Reverse transcription of the mRNA and duplex amplification of the c-myc and cyclophilin cDNAs was performed using the RNA Ultrasense kit (Invitrogen) and a ViiA7 real-time PCR machine (Applied Biosystems). IC50 values were determined from a dose response curve.

hIL-6 mRNA = assay: Inhibition of hIL-6 mRNA transcription in LPS-stimulated U937 macrophages; type: cell-based, human; parameters: key: Active: Compounds with an IC50 value less than 30 μM were deemed to be active.; Not Active: Compounds with an IC50 value less than 30 μM were deemed to be active; conditions: U937 cells differentiated with PMA, LPS stimulation, 3 h
Experimental: In this example, hIL-6 mRNA in tissue culture cells was quantitated to measure the transcriptional inhibition of hIL-6 when treated with a compound of the present disclosure.
A human leukemic monocyte lymphoma cell line (U937) was plated (3.2×10^4 cells per well) in a 96-well plate in 100 μL RPMI-1640 containing 10% FBS and penicillin/streptomycin, and differentiated into macrophages for 3 days in 60 ng/mL PMA ([…]) at 37° C. in 5% CO2 prior to the addition of the compound of interest. The cells were pretreated for 1 h with the test compound prior to stimulation with 1 ug/mL lipopolysaccharide from Escherichia coli. The cells were incubated at 37° C. for 3 h before the cells were harvested. At time of harvest, the spent media was removed from the cells and the cells were rinsed in 200 μL PBS. Cell lysis solution (70 μL) was added the cells in each well and incubated for 5-10 min at room temperature, to allow for complete cell lysis and detachment. mRNA was then prepared using the “mRNA Catcher PLUS plate” (Invitrogen), according to the protocol supplied. After the last wash, as much wash buffer as possible was aspirated without allowing the wells to dry. Elution buffer (E3, 70 μL) was then added to each well. mRNA was then eluted by incubating the mRNA Catcher PLUS plate with Elution Buffer for 5 min at 68° C. and then immediately placing the plate on ice.
The eluted mRNA isolated was then used in a one-step quantitative real-time PCR reaction, using components of the Ultra Sense Kit together with Applied Biosystems primer-probe mixes. Real-time PCR data was analyzed, normalizing the Ct values for hIL-6 to an internal control, prior to determining the fold induction of each unknown sample, relative to the control.

human AML MV-4-11 cells = assay: Inhibition of cell proliferation in cancer cell lines (CellTiter Aqueous One); type: cell-based; parameters: key: Active: Compounds with an IC50 value less than 30 μM were deemed to be active.; Not Active: Compounds with an IC50 value less than 30 μM were deemed to be active; conditions: 72 h
Experimental: MV4-11 cells: 96-well plates were seeded with 5×10^4 cells per well of exponentially growing human AML MV-4-11 (CRL-9591) cells and immediately treated with two-fold dilutions of test compounds, ranging from 30 μM to 0.2 μM. Triplicate wells were used for each concentration, as well as a media only and three DMSO control wells. The cells and compounds were incubated at 37° C., 5% CO2 for 72 h before adding 20 μL of the CellTiter Aqueous One Solution (Promega) to each well and incubating at 37° C., 5% CO2 for an additional 3-4 h. The absorbance was taken at 490 nm in a spectrophotometer and the percentage of proliferation relative to DMSO-treated cells was calculated after correction from the blank well. IC50 were calculated using the GraphPad Prism software.

[1] = molecular target: T1, Brd4 bromodomain 1 (BRD4(1)) (Homo sapiens, UniProt O60885); assay: Inhibition of tetra-acetylated histone H4 binding to BET bromodomains (TR-FRET); parameters: key: Active: Compounds with an IC50 value less than 30 μM were deemed to be active.; Not Active: Compounds with an IC50 value less than 30 μM were deemed to be active; conditions: first bromodomain of Brd4, tetra-acetylated histone H4 peptide
T1 construct: made in house; host or cells: E. coli BL21(DE3)
Experimental: Proteins were cloned and overexpressed with a N-terminal 6×His tag, then purified by nickel affinity followed by size exclusion chromatography. Briefly, E. coli BL21(DE3) cells were transformed with a recombinant expression vector encoding N-terminally Nickel affinity tagged bromodomains from Brd2, Brd3, Brd4. Cell cultures were incubated at 37° C. with shaking to the appropriate density and induced overnight with IPTG. The supernatant of lysed cells was loaded onto Ni-IDA column for purification. Eluted protein is pooled, concentrated and further purified by size exclusion chromatography. Fractions representing monomeric protein were pooled, concentrated, aliquoted, and frozen at −80° C. for use in subsequent experiments.
Binding of tetra-acetylated histone H4 and BET bromodomains was confirmed by a Time Resolved Fluorescence Resonance Energy Transfer (TR-FRET) method. N-terminally His-tagged bromodomains (200 nM) and biotinylated tetra-acetylated histone H4 peptide (25-50 nM, Millipore) were incubated in the presence of Europium Cryptate-labeled streptavidin (Cisbio Cat. #610SAKLB) and XL665-labeled monoclonal anti-His antibody (Cisbio Cat. #61HISXLB) in a white 96 well microtiter plate (Greiner). For inhibition assays, serially diluted test compound was added to these reactions in a 0.2% final concentration of DMSO. Final buffer concentrations were 30 mM HEPES pH 7.4, 30 mM NaCl, 0.3 mM CHAPS, 20 mM phosphate pH 7.0, 320 mM KF, 0.08% BSA). After a 2-h incubation at room temperature, the fluorescence by FRET was measured at 665 and 620 nm by a SynergyH4 plate reader (Biotek). The binding inhibitory activity was shown by a decrease in 665 nm fluorescence relative to 620 nm. IC50 values were determined from a dose response curve.

SMILES | c-myc activity (IC50 < 30 μM) (c-myc in MV4-11 cells) | melting point | IL-6 activity (IC50 < 30 μM) (hIL-6 mRNA) | Cell Proliferation activity (IC50 < 30 μM) (human AML MV-4-11 cells) | FRET activity BRD4(1) [1]
COc1ccc(-c2nc3cc(OC)cc(OC)c3c(=O)[nH]2)c(NCCN2CCN(C(C)C)CC2)c1 [Example 22, 2-(2-((2-(4-Isopropylpiperazin-1-yl)ethyl)amino)-4-methoxyphenyl)-5,7-dimethoxyquinazolin-4(3H)-one] | Active | 227 to 228 °C | Active | Active | Active
COc1cc(OC)c2c(=O)[nH]c(-c3ncccc3NC3CCN(C(C)=O)CC3)nc2c1 [Example 37, 2-(3-((1-Acetylpiperidin-4-yl)amino)pyridine-2-yl)-5,7-dimethoxyquinazolin-4(3H)-one] | Active | – | Active | Active | Active
COc1ccc(-c2nc3cc(OC)cc(OC)c3c(=O)[nH]2)c(NCC2CCN(C)C2)c1 (stereo not shown) [Example 7, 5,7-Dimethoxy-2-(4-methoxy-2-(((1-methylpyrrolidin-3-yl)methyl)amino)phenyl)-quinazolin-4(3H)-one] | Active | 233 to 235 °C | Active | Active | Active
COc1ccc(-c2nc3cc(OC)cc(OC)c3c(=O)[nH]2)c(N[C@H]2CC[C@H](C(C)(C)O)CC2)c1 [Example 31, 2-(2-((trans-4-(2-Hydroxypropan-2-yl)cyclohexyl)amino)-4-methoxyphenyl)-5,7-dimethoxyquinazolin-4(3H)-one] | – | 253 °C (dec.) | Active | Not Active | Active
COc1ccc(-c2nc3cc(OC)cc(OC)c3c(=O)[nH]2)c(NC2CCN(C(C)=O)CC2)c1 [Example 39, 2-(2-((1-Acetylpiperidin-4-yl)amino)-4-methoxyphenyl)-5,7-dimethoxyquinazolin-4(3H)-one] | Active | – | Active | Active | Active
COc1ccc(NC2CCN(C(C)C)CC2)c(-c2nc3cc(OC)cc(OC)c3c(=O)[nH]2)c1 [Example 26, 2-(2-((1-Isopropylpiperidin-4-yl)amino)-5-methoxyphenyl)-5,7-dimethoxyquinazolin-4(3H)-one] | Active | – | Active | Not Active | Active

Now from value to molecule:

c-myc activity (IC50 < 30 μM) (c-myc in MV4-11 cells) | melting point | IL-6 activity (IC50 < 30 μM) (hIL-6 mRNA) | Cell Proliferation activity (IC50 < 30 μM) (human AML MV-4-11 cells) | FRET activity BRD4(1) [1] | SMILES
Active | 219 to 221 °C | Active | Active | Active | CCNc1cc(OC)c2c(=O)[nH]c(-c3ncccc3NC3CCN(C(C)C)CC3)nc2c1 [Example 69, 7-(Ethylamino)-2-(3-((1-isopropylpiperidin-4-yl)amino)pyridin-2-yl)-5-methoxyquinazolin-4(3H)-one]
Active | 230 to 231 °C | Active | Not Active | Active | COc1cc(OC)c2c(=O)[nH]c(-c3ncccc3NCCCNC(=O)C(C)C)nc2c1 [Example 57, N-(3-((2-(5,7-Dimethoxy-4-oxo-3,4-dihydroquinazolin-2-yl)pyridin-3-yl)amino)propyl)isobutyramide]
Active | 165 to 166 °C | Active | Active | Active | COC(=O)C(=O)N1CCC(Nc2cccnc2-c2nc3cc(OC)cc(OC)c3c(=O)[nH]2)CC1 [Example 55, Methyl-2-(4-((2-(5,7-dimethoxy-4-oxo-3,4-dihydroquinazolin-2-yl)pyridin-3-yl)amino)piperidin-1-yl)-2-oxoacetate]
Active | 173 to 176 °C | Active | Active | Active | COc1cc(OC)c2c(=O)[nH]c(-c3ncc(OCCO)cc3NC3CCN(C(=O)C(C)C)CC3)nc2c1 [Example 64, 2-[5-(2-Hydroxyethoxy)-3-(1-isobutyroylpiperidin-4-ylamino)pyridin-2-yl]-5,7-dimethoxyquinazolin-4(3H)-one]
– | – | Active | Not Active | Active | COc1cnc(-c2nc3cc(OC)cc(OC)c3c(=O)[nH]2)c(N[C@H]2CC[C@@H](C(=O)NC(C)C)CC2)c1 [Example 45, cis-4-((2-(5,7-Dimethoxy-4-oxo-3,4-dihydroquinazolin-2-yl)-5-methoxypyridin-3-yl)amino)-N-isopropylcyclohexane-1-carboxamide]
Active | 261 to 262 °C | Active | Active | Active | COc1cc(OC)c2c(=O)[nH]c(-c3ncccc3NC3CCN(C(=O)C(=O)N(C)C)CC3)nc2c1 [Example 51, 2-(4-((2-(5,7-Dimethoxy-4-oxo-3,4-dihydroquinazolin-2-yl)pyridin-3-yl)amino)piperidin-1-yl)-N,N-dimethyl-2-oxoacetamide]
– | 198 to 199 °C | Active | Not Active | Active | COc1cc(OC)c2c(=O)[nH]c(-c3ncccc3NC3CCN(C(=O)NC(C)C)CC3)nc2c1 [Example 47, 4-((2-(5,7-Dimethoxy-4-oxo-3,4-dihydroquinazolin-2-yl)pyridin-3-yl)amino)-N-isopropylpiperidine-1-carboxamide]

Source: patent publication US10500209B2, “Quinazolinones as bromodomain inhibitors” (Zenith Epigenetics Ltd., priority 2013, dated 2019)
